Results: patent US20240158446A1, “CYCLIC COMPOUND HAVING SELECTIVE INHIBITORY ACTION ON KRAS OVER HRAS AND NRAS” (CHUGAI SEIYAKU KABUSHIKI KAISHA, priority 2021, published 2024)
pIC50, pKd: −log10 of the molar value.

How the values were obtained:
[1] = target: GDP-bound NRAS wild-type protein (Homo sapiens, UniProt P01111); assay: Binding to NRAS by surface plasmon resonance (SPR), Single Cycle Kinetics; details: SPR KD ratio NRAS/KRAS, class symbols
[2] = target: GDP-bound HRAS wild-type protein (Homo sapiens, UniProt P01112); assay: Binding to HRAS by surface plasmon resonance (SPR), Single Cycle Kinetics; details: SPR KD ratio HRAS/KRAS, class symbols
Sequence of GDP-bound HRAS wild-type protein (P01112 whole entry): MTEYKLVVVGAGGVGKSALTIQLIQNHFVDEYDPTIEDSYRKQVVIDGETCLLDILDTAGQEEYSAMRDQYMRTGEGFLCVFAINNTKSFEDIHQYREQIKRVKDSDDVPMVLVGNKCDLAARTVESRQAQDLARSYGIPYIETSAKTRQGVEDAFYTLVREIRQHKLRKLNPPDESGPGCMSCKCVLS

[3] = system: human lung cancer strain NCI-H441;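 note: cell proliferation inhibition after four days measured by CellTiter-Glo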
[4] = target: GDP-bound KRAS wild-type protein (Homo sapiens, UniProt P01116); assay: Binding to KRAS by surface plasmon resonance (SPR), Single Cycle Kinetics; details: SPR Single Cycle Kinetics, GDP-bound KRAS wild-type protein, 1:1 binding model; read-out: KRAS KD
Sequence of GDP-bound KRAS wild-type protein (P01116 whole entry): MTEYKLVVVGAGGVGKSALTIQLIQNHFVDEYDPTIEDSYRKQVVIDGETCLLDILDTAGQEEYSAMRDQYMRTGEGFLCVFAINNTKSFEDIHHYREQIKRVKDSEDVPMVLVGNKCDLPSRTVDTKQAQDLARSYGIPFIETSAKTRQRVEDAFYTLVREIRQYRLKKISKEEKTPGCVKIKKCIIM

Sequence of GDP-bound NRAS wild-type protein (P01111 whole entry): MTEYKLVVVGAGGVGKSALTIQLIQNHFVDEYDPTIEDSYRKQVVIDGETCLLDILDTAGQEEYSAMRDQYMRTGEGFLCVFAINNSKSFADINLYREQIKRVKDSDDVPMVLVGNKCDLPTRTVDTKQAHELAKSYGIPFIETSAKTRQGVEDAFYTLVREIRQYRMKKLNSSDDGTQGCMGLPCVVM

SMILES | NRAS/KRAS (ratio of KD value with respect to GDP-bound NRAS wild-type protein to KD value with respect to KRAS) [1] | HRAS/KRAS (ratio of KD value with respect to GDP-bound HRAS wild-type protein to KD value with respect to KRAS) [2] | pIC50 [3] | pKd [4]
CCC[C@H]1C(=O)N[C@@H]([C@@H](C)CC)C(=O)N2CCC[C@H]2C(=O)N(C)[C@H]2C/C=C\CCN(C2=O)[C@@H](Cc2ccc(C(F)F)cc2)C(=O)N(C)CC(=O)N[C@@H](CCc2ccc(Cl)c(Cl)c2)C(=O)N2C[C@H](OC(C)C)C[C@H]2C(=O)NC2(CC(C)(C)C2)C(=O)N(C)[C@@H](C(CC)CC)C(=O)N(C)[C@H](C(=O)N(C)C)CC(=O)N1C [PP2640] | AA (a compound having 20 or more is denoted as AA) | A (a compound having 10 or more and less than 20 is denoted as A) | 7.08 | 8.85
CCC[C@H]1C(=O)N[C@@H]([C@@H](C)CC)C(=O)N2CCC[C@H]2C(=O)N(C)[C@H]2C/C=C\CCN(C2=O)[C@@H](Cc2ccc(C)cc2)C(=O)N(C)CC(=O)N[C@@H](CCc2ccc(Cl)c(Cl)c2)C(=O)N2C[C@H](OC(C)C)C[C@H]2C(=O)NC2(CC(C)(C)C2)C(=O)N(C)[C@@H](C(CC)CC)C(=O)N(C)[C@H](C(=O)N(C)C)CC(=O)N1C [PP2641] | AA (a compound having 20 or more is denoted as AA) | A (a compound having 10 or more and less than 20 is denoted as A) | 7.01 | 8.70
CCC(CC)[C@H]1C(=O)N(C)[C@H](C(=O)N(C)C)CC(=O)N(C)[C@@H](COC)C(=O)N[C@@H]([C@@H](C)CC)C(=O)N(C)CC(=O)N(C)[C@H]2C/C=C\CCN(C2=O)[C@@H](Cc2ccc(C(F)(F)F)cc2)C(=O)N(C)CC(=O)N[C@@H](CCc2ccc(Cl)c(Cl)c2)C(=O)N2C[C@H](OC3CCC3)C[C@H]2C(=O)NC2(CC(C)(C)C2)C(=O)N1C [PP2642] | AA (a compound having 20 or more is denoted as AA) | A (a compound having 10 or more and less than 20 is denoted as A) | 7.44 | 9.36
CCC[C@H]1C(=O)N[C@@H]([C@@H](C)CC)C(=O)N(C)CC(=O)N(C)[C@H]2C/C=C\CCN(C2=O)[C@@H](Cc2ccc(C(F)F)cc2)C(=O)N(C)CC(=O)N[C@@H](CCc2ccc(Cl)c(Cl)c2)C(=O)N2C[C@H](OC3CCC3)C[C@H]2C(=O)NC2(CC(C)(C)C2)C(=O)N(C)[C@@H](C(CC)CC)C(=O)N(C)[C@H](C(=O)N(C)C)CC(=O)N1C [PP2643] | AA (a compound having 20 or more is denoted as AA) | A (a compound having 10 or more and less than 20 is denoted as A) | 7.49 | 9.31
CCC[C@H]1C(=O)N[C@@H]([C@@H](C)CC)C(=O)N(C)CC(=O)N(C)[C@H]2C/C=C\CCN(C2=O)[C@@H](Cc2ccc(C)cc2)C(=O)N(C)CC(=O)N[C@@H](CCc2ccc(Cl)c(Cl)c2)C(=O)N2C[C@H](OC3CCC3)C[C@H]2C(=O)NC2(CC(C)(C)C2)C(=O)N(C)[C@@H](C(CC)CC)C(=O)N(C)[C@H](C(=O)N(C)C)CC(=O)N1C [PP2644] | AA (a compound having 20 or more is denoted as AA) | A (a compound having 10 or more and less than 20 is denoted as A) | 7.12 | 9.09
CCC(CC)[C@H]1C(=O)N(C)[C@H](C(=O)N(C)C)CC(=O)N(C)[C@@H](COC)C(=O)N[C@@H]([C@@H](C)CC)C(=O)N2CCC[C@H]2C(=O)N(C)[C@H]2C/C=C\CCN(C2=O)[C@@H](Cc2ccc(C(F)(F)F)cc2)C(=O)N(C)CC(=O)N[C@@H](CCc2ccc(Cl)c(Cl)c2)C(=O)N2C[C@H](OC3CCC3)C[C@H]2C(=O)NC2(CC(C)(C)C2)C(=O)N1C [PP2645] | AA (a compound having 20 or more is denoted as AA) | A (a compound having 10 or more and less than 20 is denoted as A) | 7.06 | 8.96
CCC[C@H]1C(=O)N[C@@H]([C@@H](C)CC)C(=O)N2CCC[C@H]2C(=O)N(C)[C@H]2C/C=C\CCN(C2=O)[C@@H](Cc2ccc(C(F)F)cc2)C(=O)N(C)CC(=O)N[C@@H](CCc2ccc(Cl)c(Cl)c2)C(=O)N2C[C@H](OC3CCC3)C[C@H]2C(=O)NC2(CC(C)(C)C2)C(=O)N(C)[C@@H](C(CC)CC)C(=O)N(C)[C@H](C(=O)N(C)C)CC(=O)N1C [PP2646] | AA (a compound having 20 or more is denoted as AA) | A (a compound having 10 or more and less than 20 is denoted as A) | 7.03 | 8.80
